Laboratory results from PubChem BioAssay AID1788 (Vanderbilt High Throughput Screening Facility, 2009).
Active and inactive are the calls of the source. How the calls were made is not given here.

How the values were obtained:
PubChem AID 1788 = settings: MDS Pharma lead profiling panel, radioligand binding; GABAA central (rat), Muscimol site; at 10 µM; hits give high values
Adenosine A2 (human) = assay: PubChem AID 1788; settings: MDS Pharma lead profiling panel, radioligand binding, at 10 µM, hits give high values
Adrenergic a1D (human) = assay: PubChem AID 1788; settings: MDS Pharma lead profiling panel, radioligand binding, at 10 µM, hits give high values
[1] = tested on: Androgen (testosterone) AR (rat); assay: PubChem AID 1788; settings: MDS Pharma lead profiling panel, radioligand binding, at 10 µM, hits give high values
[2] = target: D(2) dopamine receptor (Homo sapiens) (UniProt P14416); assay: PubChem AID 1788; settings: MDS Pharma lead profiling panel, radioligand binding; Dopamine D2S (human); at 10 µM; hits give high values
[3] = target: D(3) dopamine receptor (Homo sapiens) (UniProt P35462); assay: PubChem AID 1788; settings: MDS Pharma lead profiling panel, radioligand binding; Dopamine D3 (human); at 10 µM; hits give high values
[4] = target: Delta-type opioid receptor (Homo sapiens) (UniProt P41143); assay: PubChem AID 1788; settings: MDS Pharma lead profiling panel, radioligand binding; Opiate d (OP1, DOP) (human); at 10 µM; hits give high values
Endothelin ETB (human) = assay: PubChem AID 1788; settings: MDS Pharma lead profiling panel, radioligand binding, at 10 µM, hits give high values
[5] = tested on: Epidermal Growth Factor (EGF) (human); assay: PubChem AID 1788; settings: MDS Pharma lead profiling panel, radioligand binding, at 10 µM, hits give high values
GABA B1A (human) = assay: PubChem AID 1788; settings: MDS Pharma lead profiling panel, radioligand binding, at 10 µM, hits give high values
Glutamate NMDA (rat) = assay: PubChem AID 1788; settings: MDS Pharma lead profiling panel, radioligand binding, at 10 µM, hits give high values
Histamine H1 (human) = assay: PubChem AID 1788; settings: MDS Pharma lead profiling panel, radioligand binding, at 10 µM, hits give high values
Histamine H2 (human) = assay: PubChem AID 1788; settings: MDS Pharma lead profiling panel, radioligand binding, at 10 µM, hits give high values
Histamine H3 (human) = assay: PubChem AID 1788; settings: MDS Pharma lead profiling panel, radioligand binding, at 10 µM, hits give high values
[6] = tested on: Imidazoline I2 central (rat); assay: PubChem AID 1788; settings: MDS Pharma lead profiling panel, radioligand binding, at 10 µM, hits give high values
Interleukin IL-1 (mouse) = assay: PubChem AID 1788; settings: MDS Pharma lead profiling panel, radioligand binding, at 10 µM, hits give high values
[7] = target: Mu-type opioid receptor (Homo sapiens) (UniProt P35372); assay: PubChem AID 1788; settings: MDS Pharma lead profiling panel, radioligand binding; Opiate m (OP3, MOP) (human); at 10 µM; hits give high values
[8] = target: Muscarinic acetylcholine receptor M2 (Homo sapiens) (UniProt P08172); assay: PubChem AID 1788; settings: MDS Pharma lead profiling panel, radioligand binding, at 10 µM, hits give high values
[9] = target: Muscarinic acetylcholine receptor M3 (Homo sapiens) (UniProt P20309); assay: PubChem AID 1788; settings: MDS Pharma lead profiling panel, radioligand binding, at 10 µM, hits give high values
[10] = target: Neuropeptide Y receptor type 2 (Homo sapiens) (UniProt P49146); assay: PubChem AID 1788; settings: MDS Pharma lead profiling panel, radioligand binding; Neuropeptide Y Y2 (human); at 10 µM; hits give high values
[11] = tested on: Nicotinic Acetylcholine (human); assay: PubChem AID 1788; settings: MDS Pharma lead profiling panel, radioligand binding, at 10 µM, hits give high values
[12] = tested on: Serotonin (5-Hydroxytryptamine) 5-HT3 (human); assay: PubChem AID 1788; settings: MDS Pharma lead profiling panel, radioligand binding, at 10 µM, hits give high values
Thyroid Hormone (rat) = assay: PubChem AID 1788; settings: MDS Pharma lead profiling panel, radioligand binding, at 10 µM, hits give high values
Transporter, GABA (rat) = assay: PubChem AID 1788; settings: MDS Pharma lead profiling panel, radioligand binding, at 10 µM, hits give high values
[13] = tested on: Transporter, Norepinephrine (NET) (human); assay: PubChem AID 1788; settings: MDS Pharma lead profiling panel, radioligand binding, at 10 µM, hits give high values
[14] = tested on: Vesicular inhibitory amino acid transporter (Rattus norvegicus) + Pro-epidermal growth factor (Homo sapiens) + Acetylcholine receptor subunit alpha (Homo sapiens) + Estrogen receptor (Homo sapiens) + Glucocorticoid receptor (Homo sapiens) + Sodium channel protein type 1 subunit alpha (Rattus norvegicus) + Beta-2 adrenergic receptor (Homo sapiens) + Muscarinic acetylcholine receptor M2 (Homo sapiens) + Beta-1 adrenergic receptor (Homo sapiens) + 5-hydroxytryptamine receptor 1A (Homo sapiens) + Alpha-2A adrenergic receptor (Homo sapiens) + Muscarinic acetylcholine receptor M1 (Homo sapiens) + Interleukin-1 receptor type 1 (Mus musculus) + D(2) dopamine receptor (Homo sapiens) + Androgen receptor (Rattus norvegicus) + Gamma-aminobutyric acid receptor subunit gamma-2 (Rattus norvegicus) + Muscarinic acetylcholine receptor M3 (Homo sapiens) + D(1A) dopamine receptor (Homo sapiens) + D(4) dopamine receptor (Homo sapiens) + Glutamate receptor ionotropic, kainate 1 (Rattus norvegicus) + Sodium-dependent noradrenaline transporter (Homo sapiens) + Endothelin receptor type B (Homo sapiens) + Alpha-1D adrenergic receptor (Homo sapiens) + Endothelin-1 receptor (Homo sapiens) + Substance-P receptor (Homo sapiens) + Neuropeptide Y receptor type 1 (Homo sapiens) + Adenosine receptor A2a (Homo sapiens) + B2 bradykinin receptor (Homo sapiens) + Adenosine receptor A1 (Homo sapiens) + Sodium-dependent serotonin transporter (Homo sapiens) + Neuronal acetylcholine receptor subunit alpha-3 (Homo …; assay: PubChem AID 1788; settings: MDS Pharma lead profiling panel, radioligand binding; at 10 µM; hits give high values
[15] = target: Voltage-gated inwardly rectifying potassium channel KCNH2 (Homo sapiens) (UniProt Q12809); assay: PubChem AID 1788; settings: MDS Pharma lead profiling panel, radioligand binding; Potassium Channel hERG (human); at 10 µM; hits give high values

Measured: inhibition

Mu-type opioid receptor (Homo sapiens), sequence (P35372 whole entry, looked up): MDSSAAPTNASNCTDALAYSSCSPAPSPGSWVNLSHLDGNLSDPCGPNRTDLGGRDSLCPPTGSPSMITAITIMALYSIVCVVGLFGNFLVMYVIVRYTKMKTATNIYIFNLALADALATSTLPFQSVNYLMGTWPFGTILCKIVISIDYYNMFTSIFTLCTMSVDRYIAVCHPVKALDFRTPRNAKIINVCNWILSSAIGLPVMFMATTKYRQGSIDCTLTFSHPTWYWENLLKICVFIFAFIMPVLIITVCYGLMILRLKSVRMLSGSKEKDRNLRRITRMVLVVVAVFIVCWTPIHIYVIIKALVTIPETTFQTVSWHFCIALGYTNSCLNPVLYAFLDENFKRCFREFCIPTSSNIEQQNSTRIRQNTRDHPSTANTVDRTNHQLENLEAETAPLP
Muscarinic acetylcholine receptor M3 (Homo sapiens), sequence (P20309 whole entry, looked up): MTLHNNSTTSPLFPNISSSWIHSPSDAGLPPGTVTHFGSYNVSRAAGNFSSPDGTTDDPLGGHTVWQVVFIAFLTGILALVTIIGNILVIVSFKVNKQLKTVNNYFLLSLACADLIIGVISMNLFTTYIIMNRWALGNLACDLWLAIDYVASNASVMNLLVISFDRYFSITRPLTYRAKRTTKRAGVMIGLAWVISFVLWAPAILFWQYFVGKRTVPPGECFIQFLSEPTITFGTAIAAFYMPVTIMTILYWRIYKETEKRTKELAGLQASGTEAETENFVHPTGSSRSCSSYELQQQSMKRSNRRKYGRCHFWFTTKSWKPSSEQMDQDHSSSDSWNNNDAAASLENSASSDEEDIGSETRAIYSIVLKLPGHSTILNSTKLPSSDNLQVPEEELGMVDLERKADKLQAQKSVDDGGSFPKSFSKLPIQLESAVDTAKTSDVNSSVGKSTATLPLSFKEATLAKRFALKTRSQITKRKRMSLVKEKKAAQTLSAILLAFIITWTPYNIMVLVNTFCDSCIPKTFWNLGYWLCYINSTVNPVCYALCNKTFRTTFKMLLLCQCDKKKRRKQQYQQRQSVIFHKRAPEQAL
Delta-type opioid receptor (Homo sapiens), sequence (P41143 whole entry, looked up): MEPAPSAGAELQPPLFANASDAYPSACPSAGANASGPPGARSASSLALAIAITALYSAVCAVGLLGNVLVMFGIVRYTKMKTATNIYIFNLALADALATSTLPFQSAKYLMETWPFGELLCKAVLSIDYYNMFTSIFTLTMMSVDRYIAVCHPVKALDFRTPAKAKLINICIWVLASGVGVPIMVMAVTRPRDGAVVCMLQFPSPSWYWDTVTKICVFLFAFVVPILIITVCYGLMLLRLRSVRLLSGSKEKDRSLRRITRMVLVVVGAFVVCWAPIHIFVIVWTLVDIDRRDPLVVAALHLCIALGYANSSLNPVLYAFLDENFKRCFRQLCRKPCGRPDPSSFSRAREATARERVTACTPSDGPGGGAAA
D(2) dopamine receptor (Homo sapiens), sequence (P14416 whole entry, looked up): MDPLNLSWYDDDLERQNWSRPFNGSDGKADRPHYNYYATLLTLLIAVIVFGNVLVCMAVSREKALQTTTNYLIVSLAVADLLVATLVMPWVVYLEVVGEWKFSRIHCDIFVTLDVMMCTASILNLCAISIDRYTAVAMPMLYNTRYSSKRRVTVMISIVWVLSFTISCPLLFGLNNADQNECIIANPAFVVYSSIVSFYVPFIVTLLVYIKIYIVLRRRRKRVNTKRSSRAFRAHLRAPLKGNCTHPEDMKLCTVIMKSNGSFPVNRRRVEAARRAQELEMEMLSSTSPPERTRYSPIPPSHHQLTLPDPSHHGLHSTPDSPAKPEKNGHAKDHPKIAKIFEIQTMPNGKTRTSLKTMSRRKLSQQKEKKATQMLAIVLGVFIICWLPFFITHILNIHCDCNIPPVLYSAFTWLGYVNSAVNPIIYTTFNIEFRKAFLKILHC
D(3) dopamine receptor (Homo sapiens), sequence (P35462 whole entry, looked up): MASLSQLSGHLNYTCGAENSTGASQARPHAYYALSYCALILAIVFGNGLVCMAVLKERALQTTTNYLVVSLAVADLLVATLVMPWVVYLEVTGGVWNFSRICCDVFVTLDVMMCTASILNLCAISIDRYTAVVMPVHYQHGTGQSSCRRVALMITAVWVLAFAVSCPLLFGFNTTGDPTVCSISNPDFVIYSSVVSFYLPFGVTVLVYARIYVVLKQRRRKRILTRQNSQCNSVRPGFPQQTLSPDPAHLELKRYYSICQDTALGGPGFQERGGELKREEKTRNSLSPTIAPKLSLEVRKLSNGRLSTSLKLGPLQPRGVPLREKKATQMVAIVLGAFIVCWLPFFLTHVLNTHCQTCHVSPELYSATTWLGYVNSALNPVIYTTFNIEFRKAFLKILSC
Neuropeptide Y receptor type 2 (Homo sapiens), sequence (P49146 whole entry, looked up): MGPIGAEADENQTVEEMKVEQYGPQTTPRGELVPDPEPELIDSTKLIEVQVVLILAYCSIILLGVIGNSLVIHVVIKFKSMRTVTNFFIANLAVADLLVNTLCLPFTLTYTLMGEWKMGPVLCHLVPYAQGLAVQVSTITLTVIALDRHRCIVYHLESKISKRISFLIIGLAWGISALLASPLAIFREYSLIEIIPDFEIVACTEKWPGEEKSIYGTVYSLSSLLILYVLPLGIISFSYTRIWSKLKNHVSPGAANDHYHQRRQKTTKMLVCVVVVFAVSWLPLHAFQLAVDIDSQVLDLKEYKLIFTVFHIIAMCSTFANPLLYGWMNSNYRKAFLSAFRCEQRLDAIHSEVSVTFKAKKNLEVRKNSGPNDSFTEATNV
Muscarinic acetylcholine receptor M2 (Homo sapiens), sequence (P08172 whole entry, looked up): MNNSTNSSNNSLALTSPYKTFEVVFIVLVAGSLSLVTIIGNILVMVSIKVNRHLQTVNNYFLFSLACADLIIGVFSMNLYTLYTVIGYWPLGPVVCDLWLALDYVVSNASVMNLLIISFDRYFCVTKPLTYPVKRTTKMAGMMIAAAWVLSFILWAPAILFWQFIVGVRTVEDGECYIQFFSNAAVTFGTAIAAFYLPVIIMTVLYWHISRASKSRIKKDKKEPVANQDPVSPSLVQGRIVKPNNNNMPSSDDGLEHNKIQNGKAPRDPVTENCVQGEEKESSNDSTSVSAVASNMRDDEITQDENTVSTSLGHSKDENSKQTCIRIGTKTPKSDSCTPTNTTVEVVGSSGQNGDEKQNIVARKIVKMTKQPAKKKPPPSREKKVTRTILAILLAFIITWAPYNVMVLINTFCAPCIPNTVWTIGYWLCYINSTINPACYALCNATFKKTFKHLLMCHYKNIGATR
Voltage-gated inwardly rectifying potassium channel KCNH2 (Homo sapiens), sequence (Q12809 whole entry, looked up): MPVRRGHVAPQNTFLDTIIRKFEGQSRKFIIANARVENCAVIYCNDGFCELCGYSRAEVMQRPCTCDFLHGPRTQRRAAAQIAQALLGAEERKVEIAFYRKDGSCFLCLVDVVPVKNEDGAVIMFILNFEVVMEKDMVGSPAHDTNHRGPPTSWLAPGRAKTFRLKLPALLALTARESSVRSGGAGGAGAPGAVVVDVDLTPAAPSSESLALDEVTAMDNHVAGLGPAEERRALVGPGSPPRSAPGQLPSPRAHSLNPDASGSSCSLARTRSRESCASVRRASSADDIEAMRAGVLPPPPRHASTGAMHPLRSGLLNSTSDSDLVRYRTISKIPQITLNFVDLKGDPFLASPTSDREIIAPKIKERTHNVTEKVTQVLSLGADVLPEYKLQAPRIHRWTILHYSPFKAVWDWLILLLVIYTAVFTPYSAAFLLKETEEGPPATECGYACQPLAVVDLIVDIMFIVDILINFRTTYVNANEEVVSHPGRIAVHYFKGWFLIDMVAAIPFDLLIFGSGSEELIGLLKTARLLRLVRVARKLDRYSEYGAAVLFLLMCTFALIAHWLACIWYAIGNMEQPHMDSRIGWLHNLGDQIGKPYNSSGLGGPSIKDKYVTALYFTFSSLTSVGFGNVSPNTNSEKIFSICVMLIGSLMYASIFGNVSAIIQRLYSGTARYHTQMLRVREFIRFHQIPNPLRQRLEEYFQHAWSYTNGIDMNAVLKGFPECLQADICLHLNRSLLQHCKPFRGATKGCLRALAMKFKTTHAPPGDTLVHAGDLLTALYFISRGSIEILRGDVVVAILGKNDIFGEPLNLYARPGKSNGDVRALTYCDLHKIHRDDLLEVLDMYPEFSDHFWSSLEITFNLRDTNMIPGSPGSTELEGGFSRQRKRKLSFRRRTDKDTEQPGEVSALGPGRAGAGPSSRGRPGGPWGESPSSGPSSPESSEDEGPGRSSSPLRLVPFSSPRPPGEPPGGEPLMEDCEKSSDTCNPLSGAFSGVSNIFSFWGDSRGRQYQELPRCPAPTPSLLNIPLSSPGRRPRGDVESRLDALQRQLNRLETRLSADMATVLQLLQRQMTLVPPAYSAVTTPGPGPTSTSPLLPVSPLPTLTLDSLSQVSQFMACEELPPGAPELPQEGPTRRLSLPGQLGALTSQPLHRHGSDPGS

CCOC(=O)N1CCC(NCCNC(=O)c2ccccc2C)CC1
inactive: PubChem AID 1788 7% | Adenosine A2 (human) 7% | Adrenergic a1D (human) 28% | [1] -2% | [2] 29% | [3] 48% | [4] -7% | Endothelin ETB (human) -4% | [5] -3% | GABA B1A (human) -22% | Glutamate NMDA (rat); Glycine site -11% | Glutamate NMDA (rat); Phencyclidine site 7% | Glutamate NMDA (rat); agonism site 13% | Histamine H1 (human) -4% | Histamine H2 (human) 27% | Histamine H3 (human) 11% | [6] 19% | Interleukin IL-1 (mouse) -1% | [7] -4% | [8] 1% | [9] -14% | [10] 12% | [11] 2% | [12] 2% | Thyroid Hormone (rat) -8% | Transporter, GABA (rat) 3% | [13] 1% | [14] -8% | [15] 1%
